Measured values reported in patent US8633245B2, “PAI-1 inhibitor” (Institute of Medicinal Molecular Design, Inc., priority 2008, dated 2014).

Molecular target: T1, recombinant human PAI-1 (Homo sapiens, UniProt P05121)
T1 construct: purchased Molecular Innovations, Inc
Assay: Test Example 2: human PAI-1 inhibitory activity (tPA fluorogenic substrate, pH 7.4 HEPES buffer)
Assay type: biochemical
Details: human PAI-1
Description: 0.1 M HEPES, 0.1 M NaCl. 1 mM EDTA. 0.1% Polyethylene glycol 8,000 (Hampton Research Corporation),
2 mM Dimethyldecylphoshine oxide [Apo-10] (Fluka Corporation)

T1 sequence (P05121 24-402): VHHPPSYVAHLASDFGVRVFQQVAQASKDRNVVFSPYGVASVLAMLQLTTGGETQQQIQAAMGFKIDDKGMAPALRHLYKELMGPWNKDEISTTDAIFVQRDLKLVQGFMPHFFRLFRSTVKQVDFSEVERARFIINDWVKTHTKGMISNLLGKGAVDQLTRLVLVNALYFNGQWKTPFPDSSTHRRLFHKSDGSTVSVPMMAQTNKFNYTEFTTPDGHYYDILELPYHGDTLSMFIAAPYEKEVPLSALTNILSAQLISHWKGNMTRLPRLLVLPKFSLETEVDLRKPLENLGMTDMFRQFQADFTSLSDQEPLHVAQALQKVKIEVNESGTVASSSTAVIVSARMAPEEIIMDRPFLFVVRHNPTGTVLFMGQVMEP

SMILES | Inhibition Rate of PAI-1 Activity (%) (compound concentration 1 μM) | Inhibition Rate of PAI-1 Activity (%) (compound concentration 3 μM) | Inhibition Rate of PAI-1 Activity (%) (compound concentration 10 μM) | Inhibition Rate of PAI-1 Activity (%) (compound concentration 25 μM) | Inhibition Rate of PAI-1 Activity (%) (compound concentration 0.1 μM) | Inhibition Rate of PAI-1 Activity (%) (compound concentration 0.3 μM)
CC(C)(C)c1ccc(-c2ccc(CN(C(=O)C(=O)O)c3ccc(OC(F)(F)F)cc3)cc2)cc1 [Compound 615] | 43 | 98 | >99 | 95 | – | –
CC(C)(C)c1ccc(CN(C(=O)C(=O)O)c2ccc(C(=O)Nc3ccc(OC(F)(F)F)cc3)cc2)cc1 [Compound 617] | 6 | 64 | >99 | >99 | – | –
CN(C(=O)c1ccc(N(Cc2ccc(C(C)(C)C)cc2)C(=O)C(=O)O)cc1)c1ccc(OC(F)(F)F)cc1 [Compound 618] | 0 | 24 | 78 | >99 | – | –
CC(C)(C)c1ccc(CN(C(=O)C(=O)O)c2ccc(N3CCN(c4ccccc4)CC3)cc2)cc1 [Compound 627] | 0 | 14 | 57 | >99 | – | –
CC(C)(C)c1ccc(CN(C(=O)C(=O)O)c2ccc(N3CCN(c4ccc(OC(F)(F)F)cc4)CC3)cc2)cc1 [Compound 628] | 40 | >99 | >99 | 90 | – | –
O=C(O)C(=O)N(Cc1ccc(-c2ccc(OC(F)(F)F)cc2)cc1)c1ccccc1-c1ccccc1 [Compound 632] | 31 | 97 | – | – | 0 | 9
O=C(O)C(=O)N(CCCCc1ccccc1)c1cc(-c2ccc(OC(F)(F)F)cc2)ccc1OC1C2CC3CC(C2)CC1C3 (centres unmarked) [Compound 634] | >99 | 92 | – | – | 17 | 37
CC(C)(C)c1ccc(Oc2cc(-c3ccc(OC(F)(F)F)cc3)ccc2N(CCCCc2ccccc2)C(=O)C(=O)O)cc1 [Compound 635] | 45 | 91 | – | – | 14 | 30
CC(C)(C)c1ccc(Oc2ccc(-c3ccc(OC(F)(F)F)cc3)cc2N(CCCCc2ccccc2)C(=O)C(=O)O)cc1 [Compound 636] | 72 | 81 | – | – | 2 | 21
CCCCC1CCC(Oc2ccc(-c3ccc(OC(F)(F)F)cc3)cc2N(CCCCc2ccccc2)C(=O)C(=O)O)CC1 (centres unmarked) [Compound 637] | 80 | 71 | – | – | 0 | 5
O=C(O)C(=O)N(CCCCc1ccccc1)c1cc(-c2ccc(OC(F)(F)F)cc2)ccc1Oc1ccccc1 [Compound 638] | 57 | >99 | – | – | 5 | 15
CC(C)[C@@H]1CC[C@@H](C)C[C@H]1Oc1ccc(-c2ccc(OC(F)(F)F)cc2)cc1N(CCCCc1ccccc1)C(=O)C(=O)O [Compound 639] | 91 | 87 | – | – | 6 | 12
CCCCCOc1ccc(-c2ccc(OC(F)(F)F)cc2)cc1N(CCCCc1ccccc1)CC(=O)O [Compound 640] | 92 | 92 | – | – | 0 | 19
CCCCC(C(=O)O)N(Cc1ccc(C(C)(C)C)cc1)c1cccc(-c2ccc(OC(F)(F)F)cc2)c1 (centres unmarked) [Compound 641] | 95 | 95 | – | – | 9 | 53
CCCCC(C(=O)O)N(Cc1ccc(C(C)(C)C)cc1)c1ccc(-c2ccc(OC(F)(F)F)cc2)cc1 (centres unmarked) [Compound 642] | 94 | 93 | – | – | 16 | 57
CCCCCOc1cc(-c2ccc(OC(F)(F)F)cc2)ccc1N(CCCCc1ccccc1)CC(=O)O [Compound 643] | 38 | 92 | – | – | 0 | 18
CC(C)(C)OCCOc1ccc(-c2ccc(OC(F)(F)F)cc2)cc1N(CCCCc1ccccc1)CC(=O)O [Compound 644] | 30 | 93 | – | – | 27 | 8
CCCCCOc1ccc(-c2ccc(OC(F)(F)F)cc2)cc1CN(C(=O)C(=O)O)c1ccc(C(C)(C)C)cc1 [Compound 645] | 95 | >99 | – | – | 6 | 26
O=C(O)CCCCCCCCOc1ccc(-c2ccc(OC(F)(F)F)cc2)cc1N(CCCCc1ccccc1)C(=O)C(=O)O [Compound 646] | 38 | 86 | – | – | 4 | 15
CCCCCOc1ccc(-c2ccc(OC(F)(F)F)cc2)cc1CN(CC(=O)O)c1ccc(C(C)(C)C)cc1 [Compound 647] | 95 | 98 | – | – | 27 | 43
CCCCCOc1cc(-c2ccc(OC(F)(F)F)cc2)ccc1CN(C(=O)C(=O)O)c1ccc(C(C)(C)C)cc1 [Compound 648] | 86 | 89 | – | – | 4 | 23
CCCCCOc1cc(-c2ccc(OC(F)(F)F)cc2)ccc1CN(CC(=O)O)c1ccc(C(C)(C)C)cc1 [Compound 649] | 96 | 97 | – | – | 10 | 64
CCCCCCCOc1cc(N(CCCCc2ccccc2)C(=O)C(=O)O)ccc1-c1ccc(OC(F)(F)F)cc1 [Compound 650] | >99 | >99 | – | – | 16 | 40
COc1ccc(-c2ccc(OC(F)(F)F)cc2)cc1N(CCCCc1ccccc1)C(=O)C(=O)O [Compound 651] | 15 | 74 | – | – | 0 | 0
CCCCCCOc1ccc(-c2ccc(OC(F)(F)F)cc2)cc1N(CCCCc1ccccc1)C(=O)C(=O)O [Compound 652] | >99 | >99 | – | – | 19 | 22
CCCCCCCCOc1ccc(-c2ccc(OC(F)(F)F)cc2)cc1N(CCCCc1ccccc1)C(=O)C(=O)O [Compound 653] | >99 | >99 | – | – | 43 | 95
CCCCCOc1cc(N(CCCCc2ccccc2)C(=O)C(=O)O)ccc1-c1ccc(OC(F)(F)F)cc1 [Compound 654] | >99 | >99 | – | – | 4 | 19
CCCCCOc1ccc(-c2ccc(OC(F)(F)F)cc2)cc1N(CCCOCc1ccccc1)C(=O)C(=O)O [Compound 655] | 44 | 97 | – | – | 3 | 0
O=C(O)C(=O)N(CCCCc1ccccc1)c1cc(-c2ccc(OC(F)(F)F)cc2)ccc1OCCCC1CCCCC1 [Compound 656] | 95 | 88 | – | – | 24 | 64
